Each structure is given as a SMILES string. “Also recorded” adds a separate entry of the source. Like-named read-outs stand apart in the source and are kept apart here.

The test system of assay [1] is FaDu oral cancer cells. Nature of the assay: MTT antiproliferative assay, FaDu. The assay is classed as cell-based. As to conditions: for GI50: Homo sapiens, FaDu, read-out: GI50 for FaDu. Here is the method:
(§1) FaDu cell line was cultured in RPMI-1640 medium containing L-glutamine (300 mg/L) and sodium bicarbonate (2 g/L), while Cal27, HEK293 and HFF-1 cell lines were cultured in DMEM medium containing glucose (4.5 g/L), L-glutamine (584 mg/L) and sodium bicarbonate (3.7 g/L). For gene expression and qPCR studies, RNA isolation was performed using Trizol (Thermo). The reagents and the primer sequences employed for the qPCR assays have been described previously ([Chakraborty et al., 2022]).
(§2) The hits derived from the docking study were sourced from either commercial suppliers or pre-existing compounds within our laboratory or were synthesized anew. The FaDu and Cal27 oral cancer cells were treated with the compounds for 72 h at concentrations of 3, 10, 30, and 100 μM. A post-treatment MTT assay was done to evaluate their antiproliferative activity. Table S2 represents the anti-proliferative and enzyme inhibitory activity of the compounds obtained as hits from the structure-based drug design strategy. […] Consequently, 50 μM of all the hit compounds were evaluated for their HK2 enzyme inhibitory activity. 50 μM of compounds were incubated with HK2 protein and the rate of reaction was assessed in kinetic mode (rate of conversion of NAD to NADH). The choice of 50 μM concentration was based primarily on MTT assays and GI50 calculation. The average GI50 values of the hit compounds against less sensitive FaDu cell line was approximately 50 μM. Considering this information, we reasoned that utilizing a concentration equivalent to the average GI50 would allow us to assess the maximum inhibitory effect of the compounds on HK2 enzyme activity. […] The same compounds have been previously reported by our team to have EGFR phosphorylation inhibitory potential and were coded as H2 (compound 14) and H10 (compound 11) ([Chakraborty et al., 2022]). […] Figures 1C,D show the lead compounds H2 and H10 at the active site of HK2 enzyme interacting via H-bonds with the amino acid residues.
In general terms: Tetrazolium assays rely on reduction of a dye to a coloured formazan, in cell work by metabolically active cells.

Assay [2] relates to Cal27 oral cancer cells. In words: MTT antiproliferative assay, Cal27. The note with it: Homo sapiens, read-out: GI50 for Cal27. The assay is classed as cell-based. Here is the method: as §1, §2
The target in assay [3] is T1, HK2 (Homo sapiens, UniProt P52789).
T1 construct: purchased Abcam ab211114
T1 sequence (P52789 1-917): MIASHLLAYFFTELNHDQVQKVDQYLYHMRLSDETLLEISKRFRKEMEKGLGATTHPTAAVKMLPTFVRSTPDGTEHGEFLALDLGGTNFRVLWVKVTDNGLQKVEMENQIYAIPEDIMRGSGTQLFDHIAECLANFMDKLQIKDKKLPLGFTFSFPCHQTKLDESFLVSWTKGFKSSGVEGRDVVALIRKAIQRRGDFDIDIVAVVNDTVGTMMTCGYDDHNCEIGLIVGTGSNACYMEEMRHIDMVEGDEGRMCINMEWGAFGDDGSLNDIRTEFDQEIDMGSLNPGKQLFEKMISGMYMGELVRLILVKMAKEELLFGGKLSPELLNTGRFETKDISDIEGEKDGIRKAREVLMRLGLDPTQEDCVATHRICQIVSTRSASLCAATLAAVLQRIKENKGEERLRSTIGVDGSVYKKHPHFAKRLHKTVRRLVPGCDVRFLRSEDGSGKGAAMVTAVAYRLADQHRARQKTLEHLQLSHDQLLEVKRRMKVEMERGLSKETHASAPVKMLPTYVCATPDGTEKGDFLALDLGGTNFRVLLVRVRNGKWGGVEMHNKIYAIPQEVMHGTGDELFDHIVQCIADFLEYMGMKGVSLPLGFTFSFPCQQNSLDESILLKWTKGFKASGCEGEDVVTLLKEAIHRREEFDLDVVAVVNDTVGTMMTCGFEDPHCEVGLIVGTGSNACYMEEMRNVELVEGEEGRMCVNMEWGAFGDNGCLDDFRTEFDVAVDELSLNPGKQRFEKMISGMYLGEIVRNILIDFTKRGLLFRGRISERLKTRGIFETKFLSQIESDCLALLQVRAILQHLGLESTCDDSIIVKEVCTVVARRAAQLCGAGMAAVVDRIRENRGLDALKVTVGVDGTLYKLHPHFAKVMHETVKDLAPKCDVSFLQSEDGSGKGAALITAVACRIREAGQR
In words: HK2 enzyme inhibition assay (Abcam kit ab211114). The class given is biochemical. As to conditions: read-out: % inhibition of HK2 enzyme activity at 50 µM. Here is the method:
The HK2 enzyme inhibition assay was performed using an HK2 inhibitor assay kit (Abcam, ab211114) according to the manufacturer’s instructions. Initially, 50 µM compound concentration was used to perform the enzyme activity inhibition studies, after which IC50 of the top leads were determined.
as §2

Assay [4] relates to FaDu cells. In words: 2-NBDG glucose uptake assay (flow cytometry), FaDu. The assay is classed as cell-based. As to conditions: 10 μM and 30 μM, 72 h, vs DMSO control. Here is the method: (§3) FaDu and Cal27 cells were treated with test compounds (0.2 million cells per treatment) and were incubated for 1 h with 100 μM of 2-NBDG (Invitrogen, N13195), in glucose free medium, washed with ice-cold PBS, and re-suspended in 500 μL of PBS and maintained on ice to perform flow cytometric analyses within 30 min. The mean fluorescent intensity (MFI) readout reflects the amount of fluorescent glucose analog taken up by the cells, providing insight into their glucose uptake capacity. The percent (%) cell population positive for glucose uptake (shown with a right shift of the histogram peaks) were also plotted for both the cell lines. For MMP analysis, cells were incubated with 200 nM of TMRE (Invitrogen, T669) for 30 min. For each measurement, data was collected for 10,000 events using a BD FACS Aria III (Becton Dickinson, San Jose, CA) instrument.
(§4) 2-[N-(7-Nitrobenz-2-oxa-1,3-diaxol-4-yl) amino]-2-deoxyglucose (2-NBDG) uptake into cells happens via glucose transporters and post uptake 2-NBDG gets phosphorylated by hexokinases. Since cancer cells represent higher glycolytic activity, the inhibition of HK2 activity in cancer cells is actively reflected in the inhibition of 2-NBDG uptake ([Hung et al., 2022]; [Li et al., 2022]). […] In this assay, the MFI of intracellular 2-NBDG serves as a quantitative measure of cellular glucose uptake. […] This finding is further supported by the increased % population of 2-NBDG positive cells in Cal27 cells compared to FaDu cells (Figure 3).
In general terms: In flow cytometry, cells or beads pass a laser one at a time.

Assay [5] concerns Cal27 cells. In words: 2-NBDG glucose uptake assay (flow cytometry), Cal27. The class given is cell-based. The note with it: Cal27, 10 μM and 30 μM, 72 h, vs DMSO control. As to the method:
as §3, §4

Assay [6] deals with T1, HK2. The note with it: ref Liu and Liu, 2022; read-out: IC50 as reported against HK2; cited from earlier work.

Take `O=C(O)C(=O)CBr` [Compound 1, 3-Bromo pyruvic acid]: the concentration for 50% growth inhibition (GI50) – broadly, the concentration giving 50% growth inhibition – is 23.9 µM in assay [1] (72 h) and 36.4 µM in assay [2] (CAL-27, 72 h). For the same molecule, the inhibition – broadly, the change of the read-out against control, counted positive when it falls – at 50 µM in assay [3] came to 88.2%. Besides, the “2-NBDG MFI” value in assay [4] and in assay [5] was “significant reduction” in each case. The IC50 (in general, the point on the concentration scale where inhibition reaches its midpoint) in assay [6] is < 5 µM.
With `O=CC[C@@H](O)[C@H](O)[C@H](O)CO` [Compound 15, 2-Deoxy Glucose], the GI50 in assay [1] (MTT, 72 h treatment, mean ± SEM) was > 100 µM; in assay [2] (CAL-27, MTT, 72 h treatment, mean ± SEM), 77.6 µM. For the same molecule, the “GI50 for FaDu” value in assay [1] (MTT, 72 h treatment, mean ± SEM, listed as 2-DG) was “no efficacy; also recorded: limited efficacy”. Moreover, the “2-NBDG MFI” value in assay [4] and in assay [5] was “significant reduction” each time.

The record behind these values is article PMC10961359, “Targeting hexokinase 2 for oral cancer therapy: structure-based design and validation of lead compounds” (Frontiers in Pharmacology, 2024).
